Measured values taken from EP1144369B1 (Wyeth Holdings Corporation, priority 1999, dated 2000).

Columns and labels:
THP-1 cells = test: THP-1 soluble protein assay (LPS-stimulated human monocytic THP-1 cells); type: cell-based; conditions: Homo sapiens, LPS-stimulated THP-1 cells, read-out: % Inhib. @ 3µM THP
Description: Mitogenic stimulation of THP-1 cells cause differentiation into macrophage like cells with concomitant secretion of tumor necrosis factor (TNF-a) and TNF receptor (TNF-R p75/80 and TNF-R p55/60) and Interleukin-8 (IL-8), among other proteins. In addition, non-stimulated THP-1 cells shed both the p75/80 and the p55/60 receptors over time. The release of membrane bound TNF-α and possibly TNF-R p75/80 and TNF-R p55/60, but not IL-8, is mediated by an enzyme called TNF-a converting enzyme or TACE.
THP-1 cells (from ATCC) are a human monocytic cell line which were obtained from the peripheral blood of a person with acute monocytic leukemia. They can be grown in culture and differentiated into macrophage like cells by stimulation with mitogens.
Each vial of cells are cultured for about two weeks prior to being used for an assay and then are used for only 4 to 6 weeks to screen compounds.
Cell exposure to DMSO was limited to 0.1 % final concentration. […] Compounds can be evaluated for their effect on basal (non-stimulated) shedding of the receptors by replacing the LPS with […] of THP-1 media. Plates are placed into an incubator set at 5% CO2 and at 37°C. After 4 hours of incubation, […] of tissue culture supernatant (TCS) is removed for use in an TNF-a ELISA. Following 24 hours of incubation, […] of TCS is removed and used for analysis in TNF-R p75/80, TNF-R p55/60 and IL-8 ELISAs.
In addition, at the 24 hours timepoint, and the cells for each treatment group are collected by resuspension in 500 µl/well of THP-1 media and transferred into a FACS tube. […] The samples are run on a Becton Dickinson FaxCaliber FLOW cytometry machine and the amount of dye taken up by each cell is measured in the high red wavelength (FL3). Only cells with compromised membranes (dead or dying) can take up PI. The percent of live cells is calculated by the number of cells not stained with PI, divided by the total number of cells in the sample. The viability values calculated for the drug treated groups were compared to the viability value calculated for the vehicle treated mitogen stimulated group ("vehicle positive control") to determine the "percent change from control". This "percent change from control" value is an indicator of drug toxicity.
The quantity of soluble TNF-a, TNF-R p75/80 and TNF-R p55/60 and IL-8 in the TCS of the THP-1 cell cultures are obtained with commercially available ELISAs from R&D Systems, by extrapolation from a standard curve generated with kit standards. The number of cells that either take up or exclude PI are measured by the FLOW cytometry machine and visualized by histograms using commercially available Cytologic software for each treatment group including all controls.
Biological variability in the magnitude of the response of THP-1 cell cultures requires that experiments be compared on the basis of percent change from "vehicle positive control" for each drug concentration. Percent change in each soluble protein evaluated from the "vehicle positive control" was calculated for each compound concentration with the following formula: % Change =(pg/ml(compound) - pg/ml (veh pos control))/(pg/ml (veh pos control) - pg/ml(veh neg control))x 100 [formula]
For the soluble protein (TNF-a, p75/80, p55/60, IL-8) studies under stimulated conditions, the mean pg/ml of duplicate wells were determined and the results expressed as percent change from "vehicle positive control". For the soluble protein (p75/80 and p55/60 receptors) studies under non-stimulated conditions, the mean pg/ml of duplicate wells were determined and the results expressed as percent change from "vehicle positive control" utilizing the following formula: % Change =(pg/ml (compound neg control) - pg/ml (veh neg control)/(pg/ml (veh neg control))X 100 [formula]
IC50 values for each compound are calculated by non-linear regression analysis using customized software utilizing the JUMP statistical package.

MMP-9 = MMP-9 (Homo sapiens, UniProt P14780); test: MMP-9 inhibition (thiopeptide or fluorescent peptide substrate); type: biochemical
Chain of MMP-9 (P14780 94-707): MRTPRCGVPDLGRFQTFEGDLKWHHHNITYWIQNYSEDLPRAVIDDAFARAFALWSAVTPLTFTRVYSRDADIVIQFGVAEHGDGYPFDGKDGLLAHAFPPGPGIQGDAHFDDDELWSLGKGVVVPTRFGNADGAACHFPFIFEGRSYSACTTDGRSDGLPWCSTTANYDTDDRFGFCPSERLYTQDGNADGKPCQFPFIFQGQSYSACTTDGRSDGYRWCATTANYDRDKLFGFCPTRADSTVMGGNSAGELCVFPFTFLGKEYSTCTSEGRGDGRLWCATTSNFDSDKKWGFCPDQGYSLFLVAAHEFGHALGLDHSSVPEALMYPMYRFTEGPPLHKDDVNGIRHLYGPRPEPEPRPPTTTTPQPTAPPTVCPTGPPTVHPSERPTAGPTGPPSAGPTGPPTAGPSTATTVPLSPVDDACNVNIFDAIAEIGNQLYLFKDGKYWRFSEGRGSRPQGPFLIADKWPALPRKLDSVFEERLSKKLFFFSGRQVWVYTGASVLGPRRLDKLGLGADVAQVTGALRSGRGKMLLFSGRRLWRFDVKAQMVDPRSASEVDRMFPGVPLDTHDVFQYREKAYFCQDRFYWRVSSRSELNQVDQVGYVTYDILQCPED
Description: (§1) The enzyme activity is measured by the rate of the color increase. The thiopeptide substrate is made up fresh as a 20 mM stock in 100% DMSO and the DTNB is dissolved in 100% DMSO as a 100 mM stock and stored in the dark at room temperature. Both the substrate and DTNB are diluted together to 1 mM with substrate buffer (50 mM HEPES pH 7.5, 5 mM CaCl2) before use. The stock of enzyme is diluted with buffer (50 mM HEPES, pH 7.5, 5 mM CaCl2, 0.02% Brij) to the desired final concentration.
(§2) Alternatively, a fluorescent peptide substrate is used. In this test procedure, the peptide substrate contains a fluorescent group and a quenching group. Upon cleavage of the substrate by an MMP, the fluorescence that is generated is quantitated on the fluorescence plate reader. The assay is run in HCBC assay buffer (50mM HEPES, pH 7.0, 5 mM Ca^+2, 0.02% Brij, 0.5% Cysteine), with human recombinant MMP-1, MMP-9, or MMP-13. The substrate is dissolved in methanol and stored frozen in 1 mM aliquots. For the assay, substrate and enzymes are diluted in HCBC buffer to the desired concentrations. Compounds are added to the 96 well plate containing enzyme and the reaction is started by the addition of substrate.
(§3) For either the thiopeptide or fluorescent peptide test procedures, the slope of the line is calculated and represents the reaction rate. The linearity of the reaction rate is confirmed (r^2 >0.85). The mean (x±sem) of the control rate is calculated and compared for statistical significance (p<0.05) with drug-treated rates using Dunnett's multiple comparison test.

MMP-13 = MMP-13 (Homo sapiens, UniProt P45452); test: MMP-13 inhibition (thiopeptide or fluorescent peptide substrate); type: biochemical
Description: as §1, §2, §3

[1] = target: TNF-α converting enzyme (TACE) (Homo sapiens, UniProt P78536); test: TACE inhibition (fluorescent peptidyl substrate); type: biochemical; conditions: read-out: IC50 (nM) or % Inhibition (µM) TACE
Chain of TNF-α converting enzyme (TACE) (P78536 215-824, species assumed): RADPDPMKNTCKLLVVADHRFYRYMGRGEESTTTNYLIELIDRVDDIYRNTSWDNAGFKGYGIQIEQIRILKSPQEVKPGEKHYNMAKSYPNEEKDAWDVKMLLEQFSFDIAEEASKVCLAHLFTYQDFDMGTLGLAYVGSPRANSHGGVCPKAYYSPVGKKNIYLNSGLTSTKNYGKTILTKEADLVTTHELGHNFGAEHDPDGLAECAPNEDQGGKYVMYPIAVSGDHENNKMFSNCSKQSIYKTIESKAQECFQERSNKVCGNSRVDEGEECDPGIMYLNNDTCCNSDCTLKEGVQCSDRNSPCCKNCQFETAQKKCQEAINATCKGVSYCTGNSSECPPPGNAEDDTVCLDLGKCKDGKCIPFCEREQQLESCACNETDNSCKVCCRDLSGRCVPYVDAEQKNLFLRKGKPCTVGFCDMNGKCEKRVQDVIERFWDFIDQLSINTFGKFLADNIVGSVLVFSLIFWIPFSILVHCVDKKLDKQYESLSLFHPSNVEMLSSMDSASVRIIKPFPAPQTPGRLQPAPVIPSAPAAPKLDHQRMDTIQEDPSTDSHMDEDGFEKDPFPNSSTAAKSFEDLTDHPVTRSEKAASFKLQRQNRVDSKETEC
Description: Using 96-well black microtiter plates, each well receives a solution composed of 10 µL TACE (final concentration 1µg/mL), 70µL Tris buffer, pH 7.4 containing 10% glycerol (final concentration 10 mM), and 10 µL of test compound solution in DMSO (final concentration 1µM, DMSO concentration <1%) and incubated for 10 minutes at room temperature. The reaction is initiated by addition of a fluorescent peptidyl substrate (final concentration 100 µM) to each well and then shaking on a shaker for 5 sec.
The reaction is read (excitation 340 nm, emission 420 nm) for 10 min. and the increase in fluorescence over time is plotted as a linear line. The slope of the line is calculated and represents the reaction rate.
The linearity of the reaction rate is confirmed (r^2 >0.85). The mean (x±sem) of the control rate is calculated and compared for statistical significance (p<0.05) with drug-treated rates using Dunnett's multiple comparison test.

MMP-1 = target: T1, MMP-1 (Homo sapiens, UniProt P03956); test: MMP-1 inhibition (thiopeptide or fluorescent peptide substrate); type: biochemical; conditions: read-out: IC50 (nM) or % Inhibition (µM) MMP-1
T1 sequence (P03956 100-469): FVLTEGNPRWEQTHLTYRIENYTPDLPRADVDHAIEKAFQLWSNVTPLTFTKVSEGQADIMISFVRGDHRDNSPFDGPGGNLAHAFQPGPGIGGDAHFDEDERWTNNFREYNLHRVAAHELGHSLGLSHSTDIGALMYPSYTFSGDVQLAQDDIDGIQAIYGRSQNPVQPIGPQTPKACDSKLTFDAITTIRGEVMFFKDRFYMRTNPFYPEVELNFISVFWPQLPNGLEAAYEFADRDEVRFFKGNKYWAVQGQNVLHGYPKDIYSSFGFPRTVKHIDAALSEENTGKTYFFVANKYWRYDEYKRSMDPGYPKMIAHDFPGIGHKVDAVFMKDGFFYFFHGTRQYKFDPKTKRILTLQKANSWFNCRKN
Description: as §1, §2, §3

SMILES: Cc1cc(Br)cc(C(=O)NO)c1N(C)S(=O)(=O)c1ccc(OCC#CCNC2CCC2)cc1 [Example 31, 5-Bromo-2-{[4-(4-cyclobutylamino-but-2-ynyloxy)-benzenesulfonyl]-methyl-amino}-N-hydroxy-3-methyl-benzamide]
- inhibition at 3 µM (THP-1 cells): 6%
- IC50 (MMP-9): 301 nM
- IC50 (MMP-13): 724 nM
- IC50 [1]: 44 nM
- inhibition at 10 µM (MMP-1): 19%
